Reference: ChEMBL document CHEMBL1130333, “On the mechanism of chorismate mutases: Revisiting structural requirements for catalysis” (Bioorg Med Chem Lett, 1997)
pKi: −log10 of the molar value.

Experiments:
[1] = Rearrangement half-life at pH of 7.4 was determined; type: ADME; conditions: pH 7.4
[2] = Rearrangement half-life at pH of 7.8 was determined; type: ADME; conditions: pH 7.8
[3] = The compound was tested for inhibition of Bacillus subtilis chorismate mutase (BcCM); weak competitive inhibitor

Q: What does the source list for `C=C(O[C@@H]1C=CC=C[C@H]1O)C(=O)[O-].[Na+]`?
A: half-life [1]: 1.7 h; half-life [2]: 3.1 h; pKi [3]: 3.30
